# Test results: patent US10758583B2, “Processed food and pharmaceutical composition having watermelon sprout-derived substances as main ingredients” (KINKI UNIVERSITY, priority 2016, dated 2020)
# Key:
# [1] = tested on: human T-cell leukemia cell line Jurkat cell; assay: Growth of Jurkat cells, live cell count by trypan blue staining; format: cell-based; conditions: for growth inhibitory activity of isolated components on Jurkat cells: 10, 25 and 50 μM, cells counted after 24, 48, 72 hours (FIG. 7); for IC50: Homo sapiens, Jurkat, isolated components, FIG. 7, read-out: IC50 in the inhibition of the growth of the Jurkat cells
# Experimental: A human T-cell leukemia cell line Jurkat cell was obtained from the Independent Administrative Institution RIKEN BioResource Center (Tsukuba-shi, Ibaraki-ken). The cell was cultured in a RPMI 1640 medium (Wako Pure Chemical Industries, Ltd., Osaka-shi, Osaka-fu) containing 10% fetal bovine serum (Thermo Fisher Scientifics, K.K., MA, USA), 100 U/mL penicillin, and 100 μg/mL streptomycin (both from Life Technologies, Carlsbad, Calif., USA) at 37° C. in an environment of 95% air and 5% CO2.
# The Jurkat cells were adjusted to 1×10^5 cells/mL and seeded in a 24-well multi-well plate (Thermo Fisher Scientifics, K.K.) by 500 μL per well. […] At 24, 48, and 72 hours after the sample treatment, the cells were stained with trypan blue (Life Technologies) to count live cells using a hemacytometer.
# These components were examined for the growth inhibitory effect on the Jurkat cells. The Jurkat cells were treated with each component at final concentrations of 10, 25, and 50 μM and the number of cells was counted after 24, 48, and 72 hours.
# Cyclin A = assay: Western blot of Cyclin A protein expression in Jurkat cells in S phase; format: cell-based, human; conditions: Phytol(+) vs Phytol(−), n=5, p<0.01 (FIG. 9)
# Source text: Next, the growth inhibition of the Jurkat cells caused by phytol and lutein was further investigated. As shown in FIG. 6 and FIG. 7, the growth inhibition of the Jurkat cells was caused by the induction of the cell cycle arrest in the S phase during cell division. Thus, it was further investigated how phytol induced the cell cycle arrest in the S phase. Specifically, protein expression of a molecule that controls the S phase of the cell cycle was examined by a Western blot method. […] Results of Cyclin A and β-Actin are shown with a phytol treatment (Phytol(+)) and without a phytol treatment (Phytol(−)). Further, in FIG. 9(b), the result of the Western blot shown in FIG. 9(a) was subjected to background correction using an image analysis software imageJ and then subjected to a densitometry analysis to obtain a ratio of a band density of Cyclin A relative to that of β-Actin. In evaluating data, a value of Phytol(+) was calculated by taking a value of Phytol(−) as 1 and represented as a mean±standard deviation (n=5). Comparison between Phytol(−) and Phytol(+) was tested by a Tukey-Kramer method (p<0.01).
# [2] = tested on: human normal lymphoid cell; assay: Effect on growth of human normal lymphoid cell (trypan blue count); format: cell-based; conditions: stated with reference to FIG. 8
IC50 [1] [µM],Structure (SMILES),growth inhibitory activity of isolated components on Jurkat cells [1],expression of Cyclin A (band relative to β-Actin) (Cyclin A),growth inhibitory effect on the normal cell [2]
–,CC(C)C/C=C/[C@@H](C)[C@H]1CC[C@H]2[C@@H]3CC=C4C[C@@H](O)CC[C@]4(C)[C@H]3CC[C@]12C [22-dehydrocholesterol],hardly inhibited the growth of the Jurkat cells,–,–
22.6,CC1=C[C@H](O)CC(C)(C)[C@H]1/C=C/C(C)=C/C=C/C(C)=C/C=C/C=C(C)/C=C/C=C(C)/C=C/C1=C(C)C[C@@H](O)CC1(C)C [lutein],significant growth inhibitory activity,–,–
12.8,"C/C(=C\CO)CCC[C@H](C)CCC[C@H](C)CCCC(C)C [phytol, Phytol]",significant growth inhibitory activity,suppressed,does not exhibit the growth inhibitory effect
